This note sets out measurements from patent publication US12653796B2, “Compounds for use (in particular RIPA-56) in the prevention and/or treatment of non-alcoholic fatty liver disease” (SORBONNE UNIVERSITE, priority 2019, dated 2026).

The assay deals with primary human hepatocytes. As to the kind of experiment: Fat depletion in primary human hepatocytes with free fatty acid-induced steatosis. Type of assay: cell-based. The following applies: 20 μM, 24 h. As for the experimental part:
FIG. 7. RIPA-56 treatment induces fat depletion in primary human hepatocytes. Primary human hepatocytes were isolated from steatotic human livers of patients with NAFLD (n=5) (A-C) or from non-steatotic human livers and incubated with free fatty acids to induce steatosis or without (W/O) (n=5) (D-G), and treated with RIPA-56 (20 μM) or DMSO (vehicle) for 24 h. (A, D) Representative Oil Red-O and DAPI images; (B, E) Quantification of Oil Red-O staining normalized for the number of DAPI-stained nuclei; (C, F) Quantification of intracellular triglycerides normalized to protein content; (G) mRNA levels of CPT1A, MTTP and APOB100 were assessed by RT-qPCR, and shown relative to DMSO-treated hepatocytes. Results are shown as mean±SEM; n.s., not significant; *p<0.05; **p<0.01; scale bars, 100 μm. These findings are representative of five independent cell preparations.
FIG. 9. MLKL controls intrahepatic triglyceride content in hepatocytes. (A-D) Primary human hepatocytes were isolated from non-steatotic human livers and incubated with free fatty acids to induce steatosis, or without (W/O), and treated with necrosulfonamide (NSA) (20 μM) or DMSO (vehicle) for 24 h. (A) Representative Oil Red-O and DAPI images; (B) Quantification of Oil Red-O staining normalized for the number of DAPI-stained nuclei; (C) Quantification of intracellular triglycerides normalized to protein content. (D) mRNA levels of CPT1A, MTTP and APOB100 were assessed by RT-qPCR and shown relative to DMSO-treated hepatocytes; (E-H) AML-12 cells were knocked-out (KO) for MLKL and compared with control (CTL) cells, which underwent a similar CRISPR-Cas9 selection as KO cells; (E) Whole-cell lysates were extracted from CTL and MLKL-KO AML-12 cells and analyzed by Western blot using antibodies against MLKL, Tubulin and GAPDH; (F) Representative Oil Red-O and DAPI images; (G) Oil Red-O staining and (H) triglycerides quantification in fat-loaded cell lines. Results are shown as mean±SEM; n.s., not significant; *p<0.05; **p<0.01; ***p<0.001; scale bars, 100 μm. These experiments are representative of five independent cell preparations.
The liver fragment was initially perfused with a prewarmed (37° C.) calcium-free buffer supplemented with 5 mmol/L ethylene glycol tetra-acetic acid (Sigma) followed by perfusion with a prewarmed (37° C.) buffer containing 6 mmol/L calcium (CaCl2) and collagenase 0.05% ([…]) (Sigma). The liver fragment was then gently shaken to disperse liver cells in Hepatocyte Wash Medium (Life Technologies, Villebon-sur-Yvette, France). The resulting cell suspension was filtered through a gauze-lined funnel. Cells were then centrifuged at low speed. The supernatant, containing damaged or dead hepatocytes, non-parenchymal cells and debris were removed and pelleted hepatocytes were re-suspended in Hepatocyte Wash Medium. The count of viable cells was determined using trypan blue exclusion. Freshly isolated normal (steatosis <5%) or steatotic (>10%) hepatocytes were resuspended in Williams medium E (Life technologies) containing 10% fetal calf serum (Eurobio), penicillin (200 U/mL)-streptomycin (200 μg/mL), Fungizone (2.5 μg/mL) and insulin (0.1 U/mL) (Life Technologies). The cells were seeded in 12-, 24- and 96-well plates pre-coated with type I collagen at a density of 0.78×10^6, 0.4×10^6 and 0.5×10^5 viable cells/well, respectively, and incubated overnight at 37° C. in a 5% CO2 atmosphere. The medium was replaced with fresh complete hepatocyte medium supplemented with 1 μmol/L hydrocortisone hemisuccinate (Laboratoires SERB, Paris, France) and hepatocytes were maintained in this medium. To induce steatosis in normal hepatocytes, PHH were incubated with free fatty acid (FFA) mixtures of oleic acid and palmitic acid in a molar ratio 2:1 (500:250 μmol/L), respectively, and with 1% fatty-acid-free BSA for 48 hours.
Total RNA was purified from liver tissue using TRIzol reagent (ThermoFisher) and a RNeasy Mini kit (Qiagen, Courtaboeuf, France). […]

With `CCC(C)(C)C(=O)N(O)Cc1ccccc1` [RIPA-56, N-Benzyl-N-hydroxy-2,2-dimethylbutanamide], under “FFA-induced steatosis”, the “intracellular lipid droplets (Oil Red-O)” value was “significant decrease” and the intracellular triglyceride content entry was “significant decrease”. In addition, under “RT-qPCR”, the “CPT1A, APOB100 and MTTP expression (mRNA)” value was “up-regulation”.
